The source of these data is patent US20250281647A1, “STEALTH LIPID NANOPARTICLE COMPOSITIONS FOR CELL TARGETING” (Generation Bio Co., priority 2023, published 2025).

The Kd is the concentration at which binding is half-saturated.

The assay has as its target T1, ASGPR (Homo sapiens, UniProt P07306).
T1 sequence (P07306 1-291): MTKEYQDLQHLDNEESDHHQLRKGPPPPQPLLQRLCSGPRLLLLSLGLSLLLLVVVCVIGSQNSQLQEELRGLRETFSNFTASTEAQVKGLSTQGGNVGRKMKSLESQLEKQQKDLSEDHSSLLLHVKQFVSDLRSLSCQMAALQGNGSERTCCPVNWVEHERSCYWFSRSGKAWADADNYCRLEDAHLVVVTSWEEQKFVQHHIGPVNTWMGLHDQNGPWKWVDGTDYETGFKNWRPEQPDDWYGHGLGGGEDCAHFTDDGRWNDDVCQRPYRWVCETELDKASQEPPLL
The experiment in a line: Binding of targeting ligand formats to ASGPR. Conditions: read-out: dissociation constants (Kd). The text has this:
In this example, multiple targeting ligand formats with varying affinities to ASGPR and off target receptors were compared. […] The high degree of over modification refers to modifying each Fab with more than 1 SATA molecule leading to multiple points of PEG-Mal conjugation during the final phase of ctLNP formulation and conjugation.

Turning to `CC(=O)N[C@H]1C(O)O[C@H](CO)[C@H](O)[C@@H]1O` (stereo partly shown) [GalNAc], the dissociation constant Kd is roughly 30.7 nM.
